# Assay results taken from patent publication US20250241895A1 (GH RESEARCH IRELAND LIMITED, priority 2022, published 2025).
# System: patients with treatment-resistant major depressive disorder (TRD)
# Assay: Phase 1/2 clinical trial of inhaled 5-MeO-DMT in TRD
# Settings: for patients with at least one ADR: n=4
# Experimental: This trial was designed in two parts. Part A was an open-label, single-arm, single-dose Phase 1 trial with two dose levels (12 mg (n=4) and 18 mg (n=4)). […] The primary endpoint of Part B was to assess the effects on the severity of depression, as assessed by the proportion of patients in remission on day seven after dosing, defined as a MADRS total score of less than or equal to 10.
# [1] = 12 mg group n=4, sum of patient scores, 2 hours after dose
# [2] = 12 mg group n=4, sum of patient scores, 3 hours after dose
# [3] = 12 mg group n=4, sum of patient scores, baseline
# [4] = 12 mg group n=4, sum of patient scores, day 1
# [5] = 12 mg group n=4, sum of patient scores, day 7
# [6] = IDR group n=8, sum of patient scores, 2 hours after last dose
# [7] = IDR group n=8, sum of patient scores, 3 hours after last dose
# [8] = IDR group n=8, sum of patient scores, baseline
# [9] = IDR group n=8, sum of patient scores, day 1
# [10] = IDR group n=8, sum of patient scores, day 7
structure (smiles),measurement,setting,value
COc1ccc2[nH]cc(CCN(C)C)c2c1 [5-MeO-DMT],BPRS Anxiety percentage improvement,"12 mg group n=4, day 7",76.00%
same,MADRS Pessimistic Thoughts percentage improvement,"12 mg group n=4, day 7",50.00%
same,MADRS Reduced Sleep percentage improvement,"12 mg group n=4, day 7",50.00%
same,MADRS Concentration Difficulties improvement,[1],9
same,MADRS Inability to Feel improvement,[1],7
same,MADRS Inner Tension improvement,[1],11
same,MADRS Lassitude improvement,[1],6
same,MADRS Lassitude score,[1],10
same,MADRS Pessimistic Thoughts improvement,[1],8
same,MADRS Suicidal Thoughts improvement,[1],5
same,MADRS Suicidal Thoughts score,[1],3
same,BPRS Anxiety improvement,[2],14
same,BPRS Blunted Affect improvement,[2],3
same,BPRS Emotional Withdrawal improvement,[2],2
same,BPRS Guilt Feelings improvement,[2],9
same,BPRS Tension improvement,[2],5
same,BPRS Anxiety score,[3],25
same,BPRS Blunted Affect score,[3],11
same,BPRS Emotional Withdrawal score,[3],13
same,BPRS Guilt Feelings score,[3],18
same,BPRS Tension score,[3],14
same,MADRS Concentration Difficulties score,[3],16
same,MADRS Inability to Feel score,[3],16
same,MADRS Inner Tension score,[3],13
same,MADRS Lassitude score,[3],16
same,MADRS Pessimistic Thoughts score,[3],16
same,MADRS Reduced Sleep score,[3],12
same,MADRS Suicidal Thoughts score,[3],8
same,BPRS Anxiety improvement,[4],19
same,BPRS Blunted Affect improvement,[4],5
same,BPRS Emotional Withdrawal improvement,[4],5
same,BPRS Emotional Withdrawal score,[4],8
same,BPRS Guilt Feelings improvement,[4],13
same,BPRS Tension improvement,[4],8
same,MADRS Concentration Difficulties improvement,[4],14
same,MADRS Inability to Feel improvement,[4],15
same,MADRS Inner Tension improvement,[4],10
same,MADRS Lassitude improvement,[4],16
same,MADRS Lassitude score,[4],0
same,MADRS Pessimistic Thoughts improvement,[4],9
same,MADRS Pessimistic Thoughts score,[4],7
same,MADRS Reduced Sleep improvement,[4],2
same,MADRS Suicidal Thoughts improvement,[4],3
same,BPRS Anxiety improvement,[5],19
same,BPRS Blunted Affect improvement,[5],6
same,BPRS Emotional Withdrawal improvement,[5],7
same,BPRS Guilt Feelings improvement,[5],13
same,BPRS Guilt Feelings score,[5],5
same,BPRS Tension improvement,[5],8
same,MADRS Concentration Difficulties improvement,[5],13
same,MADRS Inability to Feel improvement,[5],15
same,MADRS Inability to Feel score,[5],1
same,MADRS Inner Tension improvement,[5],8
same,MADRS Lassitude improvement,[5],13
same,MADRS Lassitude score,[5],3
same,MADRS Pessimistic Thoughts improvement,[5],8
same,MADRS Pessimistic Thoughts score,[5],8
same,MADRS Reduced Sleep improvement,[5],6
same,MADRS Suicidal Thoughts improvement,[5],1
same,MADRS Reduced Sleep percentage improvement,"IDR group n=8, day 1",52.00%
same,MADRS Reduced Sleep percentage improvement,"IDR group n=8, day 7",64.00%
same,MADRS Concentration Difficulties improvement,[6],19
same,MADRS Inability to Feel improvement,[6],24
same,MADRS Inner Tension improvement,[6],15
same,MADRS Lassitude improvement,[6],17
same,MADRS Pessimistic Thoughts improvement,[6],21
same,MADRS Suicidal Thoughts improvement,[6],8
same,BPRS Anxiety improvement,[7],18
same,BPRS Blunted Affect improvement,[7],4
same,BPRS Emotional Withdrawal improvement,[7],5
same,BPRS Guilt Feelings improvement,[7],20
same,BPRS Tension improvement,[7],5
same,BPRS Anxiety score,[8],37
same,BPRS Blunted Affect score,[8],15
same,BPRS Emotional Withdrawal score,[8],13
same,BPRS Guilt Feelings score,[8],34
same,BPRS Tension score,[8],16
same,MADRS Concentration Difficulties score,[8],30
same,MADRS Inability to Feel score,[8],36
same,MADRS Inner Tension score,[8],26
same,MADRS Lassitude score,[8],27
same,MADRS Pessimistic Thoughts score,[8],28
same,MADRS Reduced Sleep score,[8],25
same,MADRS Suicidal Thoughts score,[8],11
same,BPRS Anxiety improvement,[9],21
same,BPRS Blunted Affect improvement,[9],7
same,BPRS Emotional Withdrawal improvement,[9],5
same,BPRS Guilt Feelings improvement,[9],23
same,BPRS Tension improvement,[9],5
same,MADRS Concentration Difficulties improvement,[9],29
same,MADRS Inability to Feel improvement,[9],34
same,MADRS Inner Tension improvement,[9],20
same,MADRS Lassitude improvement,[9],22
same,MADRS Pessimistic Thoughts improvement,[9],24
same,MADRS Reduced Sleep improvement,[9],13
same,MADRS Suicidal Thoughts improvement,[9],10
same,BPRS Anxiety improvement,[10],20
same,BPRS Blunted Affect improvement,[10],7
same,BPRS Emotional Withdrawal improvement,[10],5
same,BPRS Guilt Feelings improvement,[10],24
same,BPRS Tension improvement,[10],6
same,MADRS Concentration Difficulties improvement,[10],21
same,MADRS Inability to Feel improvement,[10],30
same,MADRS Inner Tension improvement,[10],14
same,MADRS Lassitude improvement,[10],24
same,MADRS Pessimistic Thoughts improvement,[10],25
same,MADRS Reduced Sleep improvement,[10],16
same,MADRS Suicidal Thoughts improvement,[10],8
same,mean MADRS change from baseline,"Part A, 12 mg group, day seven",−21.0
same,"mean MADRS change from baseline, percent","Part A, 12 mg group, day seven",−65%
same,patients with at least one ADR,"Part A, 12 mg single dose",3 of 4
same,further patients with MADRS clinical response,"Part A, 18 mg group n=4, day seven after dosing",25%
same,"mean MADRS change from baseline, percent","Part A, 18 mg group, day seven",−41%
same,patients with at least one ADR,"Part A, 18 mg single dose",3 of 4
same,patients with MADRS remission (total score less than or equal to 10),"Part B, IDR n=8, day seven",87.5%
